Laboratory results reported in patent US5994365A, “Substituted diazaanthracene compounds having pharmaceutical utility” (Diazans Limited, priority 1998, dated 1999).
Values joined by “and” are separate entries in the source; they are usually repeats but may differ in a detail not shown here. Equal values may be shown once.

Assays:
Staph aureus = assay: Broth microdilution (NCCLS guidelines), MIC; assay type: cell-based, Staphylococcus aureus; parameters: MICs: unit not given beside the values; conditions: for 1st MIC / 2nd MIC: Table B
Procedure: (§1) The dimer product of Example 15 was obtained in powder form. A stock solution of 1280 mg/L of the dimer in dimethylsulfoxide (DMSO) was prepared and stored at room temperature in a foil-wrapped screw-capped tube (10 ml). Subsequent dilutions were prepared using cation-adjusted Mueller-Hinton broth (50 mg/L Mg). […] It was resuspended upon mixing each time an aliquot was taken from the solution.
(§2) Approximately 100 varied bacterial isolates were initially collected for screening, along with 9 ATCC organisms. Forty additional strains of Staphylococcus species were subsequently screened. All isolates were identified according to generally accepted lab protocol.
(§3) Broth microdilution was performed according to NCCLS guidelines. Microdilution panels were prepared using doubling dilutions of the dimer in ~250 μl plastic, 96-well trays. Inoculum suspension equal to a 0.5 McFarland standard were further diluted and added to the microdilution trays to achieve a final inoculum of 5×10^5 CFU/ml (5×10^4 CFU/well). Colony counts were performed to confirm the final inoculum, as well as its purity. Each strain was also tested in a growth control well containing only MHB for viability.
(§4) Microdilution trays were incubated at 35° C. in ambient air or 5% CO2 as appropriate for 16-20 hours. After incubation, the minimal inhibitory concentration (MIC) was defined as the lowest concentration of the dimer with no evidence of growth. Since 10 or more strains of most organisms were tested; a range of MICs was determined for each organism, as well as the concentration of the dimer that inhibited 50% of the strains (MIC50) and the concentration of the dimer that inhibited 90% of the strains (MIC90).

[1] = tested on: Methicillin-resistant Staph aureus (MRSA); assay: Broth microdilution (NCCLS guidelines), MIC; assay type: cell-based, Staphylococcus aureus
Procedure: as §1, §2, §3, §4

P. aeruginosa = assay: Broth microdilution (NCCLS guidelines), MIC; assay type: cell-based, Pseudomonas aeruginosa; conditions: Table A
Procedure: as §1, §2, §3, §4

MRSA = assay: Minimal bactericidal concentration (MBC), 99.9% kill; assay type: cell-based, Staphylococcus aureus; conditions: Table F
Procedure: as §3
Various isolates were also tested for minimal bactericidal concentration (MBC) (see Tables D and F).
Subbed 50 μl of ≤5 clear wells

[2] = strain S. aureus 1 (line under ATCC 25923)
[3] = Table C, Pip/Taz S. aureus, 10 strains, solution 14 days old
[4] = Table C, S. aureus, 10 strains, solution 14 days old
[5] = Table E, Pip/Taz SA, 10 strains, fresh solution
[6] = Table E, S. aureus, 10 strains, fresh solution
[7] = Table G, S. aureus (2nd clinical isolate collection), 10 strains
[8] = Table G, S. aureus (pip-tazo study), 10 strains
[9] = Table C, 10 strains, solution 14 days old
[10] = Table E, 10 strains, fresh solution

Substance: 10,10'-bis(3,6-dimethyl-5,10-dihydro-1,8-diazaanthracen-5-one) and 5,5'-bis(3,6-dimethyl-5,10-dihydro-1,8-diazaanthracen-10-one) [Example 15]
- MIC50 (Staph aureus; Table A, 12 strains): 0.5 µg/mL
- MIC90 (Staph aureus; Table A, 12 strains): 1.0 µg/mL
- Range of MICs (Staph aureus; Table A, 12 strains): .0625 to 1.0 mg/L
- MIC (Staph aureus; Table A, ATCC MSSA 25923): 0.0625 µg/mL
- MIC (Staph aureus; Table A, ATCC MSSA 29213): 1.0 µg/mL
- 1st MIC (Staph aureus; [2]): 0.0625 µg/mL
- 2nd MIC (Staph aureus; [2]): 0.0625 µg/mL
- 1st MIC (Staph aureus; strain S. aureus 2): 1 µg/mL
- 2nd MIC (Staph aureus; strain S. aureus 2): 1 µg/mL
- 1st MIC (Staph aureus; strain S. aureus 3): 0.5 µg/mL
- 2nd MIC (Staph aureus; strain S. aureus 3): 0.125 µg/mL
- 1st MIC (Staph aureus; strain S. aureus 4): 1 µg/mL
- 2nd MIC (Staph aureus; strain S. aureus 4): 1 µg/mL
- 1st MIC (Staph aureus; strain S. aureus 5): 1 µg/mL
- 1st MIC (Staph aureus; strain S. aureus 6): 0.125 µg/mL
- 2nd MIC (Staph aureus; strain S. aureus 6): 0.25 µg/mL
- 1st MIC (Staph aureus; strain S. aureus 7): 0.5 µg/mL
- 2nd MIC (Staph aureus; strain S. aureus 7): 0.5 µg/mL
- 1st MIC (Staph aureus; strain S. aureus 8): 0.5 µg/mL
- 2nd MIC (Staph aureus; strain S. aureus 8): 1 µg/mL
- MICs (Staph aureus; Table C, ATCC MSSA 25923, solution 14 days old, listed as Dimer): 8 and > 16
- MICs (Staph aureus; Table C, ATCC MSSA 29213, solution 14 days old, listed as Dimer, in µg/mL): 4 and 8
- MIC50 (Staph aureus; [3]): 2 µg/mL
- MIC90 (Staph aureus; [3]): 8 µg/mL
- Range of MICs (Staph aureus; Table C, Pip/Taz S. aureus, 10 strains, solution 14 days old, in µg/mL): 2-16
- MIC50 (Staph aureus; [4]): 4 µg/mL
- MIC90 (Staph aureus; [4]): 16 µg/mL
- Range of MICs (Staph aureus; Table C, S. aureus, 10 strains, solution 14 days old, in µg/mL): 2-8
- MIC (Staph aureus; Table D, S. aureus 1): 2 µg/mL
- MIC (Staph aureus; Table D, S. aureus 2): 16 µg/mL
- MIC (Staph aureus; Table D, S. aureus 3): 8 µg/mL
- MIC (Staph aureus; Table D, S. aureus 4): 4 µg/mL
- MIC (Staph aureus; Table D, S. aureus 5): 16 µg/mL
- MIC (Staph aureus; Table D, S. aureus 6): 2 µg/mL
- MIC (Staph aureus; Table D, S. aureus 7): 8 µg/mL
- MIC (Staph aureus; Table D, S. aureus 8): 2 µg/mL
- MIC (Staph aureus; Table D, S. aureus 9): 2 µg/mL
- MIC (Staph aureus; Table D, S. aureus 10): 4 µg/mL
- MICs (Staph aureus; Table E, ATCC MSSA 25923, fresh solution, listed as Dimer, in µg/mL): 0.125 and 0.25
- MICs (Staph aureus; Table E, ATCC MSSA 29213 (×2), fresh solution, in µg/mL): 2
- MIC50 (Staph aureus; [5]): 1 µg/mL
- MIC90 (Staph aureus; [5]): 2 µg/mL
- Range of MICs (Staph aureus; Table E, Pip/Taz SA, 10 strains, fresh solution, in µg/mL): 0.25-2
- MIC50 (Staph aureus; [6]): 0.5 µg/mL
- MIC90 (Staph aureus; [6]): 1 µg/mL
- Range of MICs (Staph aureus; Table E, S. aureus, 10 strains, fresh solution, in µg/mL): 0.25-1
- MIC (Staph aureus; Table F, ATCC S. aureus 25923): 0.25 µg/mL
- MIC (Staph aureus; Table F, ATCC S. aureus 29213): 2 µg/mL
- MIC (Staph aureus; Table F, Pip/Taz S. aureus 1): 2 µg/mL
- MIC (Staph aureus; Table F, Pip/Taz S. aureus 3): 0.25 µg/mL
- MIC (Staph aureus; Table F, Pip/Taz S. aureus 7): 1 µg/mL
- MIC (Staph aureus; Table F, S. aureus 1): 0.25 µg/mL
- MIC (Staph aureus; Table F, S. aureus 2): 1 µg/mL
- MIC (Staph aureus; Table F, S. aureus 8): 0.5 µg/mL
- MIC (Staph aureus; Table G footnote, ATCC 25923, methicillin susceptible): 0.25 µg/mL
- MIC (Staph aureus; Table G footnote, ATCC 29213, methicillin susceptible): 2 µg/mL
- MIC50 (Staph aureus; [7]): 0.5 µg/mL
- MIC90 (Staph aureus; [7]): 1 µg/mL
- Range of MICs (Staph aureus; [7]): 0.25 to 1 mg/L
- MIC50 (Staph aureus; [8]): 1 µg/mL
- MIC90 (Staph aureus; [8]): 2 µg/mL
- Range of MICs (Staph aureus; [8]): 0.25 to 2 mg/L
- MIC50 ([1]; Table A, 12 strains): 0.5 µg/mL
- MIC90 ([1]; Table A, 12 strains): 1.0 µg/mL
- Range of MICs ([1]; Table A, 12 strains): 0.25 to 1.0 mg/L
- MIC ([1]; Table A, ATCC MRSA 33591): 0.5 µg/mL
- MIC50 [1, 9]: > 16 µg/mL
- MIC90 [1, 9]: > 16 µg/mL
- Range of MICs ([1]; Table C, 10 strains, solution 14 days old, in µg/mL): > 16
- MICs ([1]; Table C, ATCC MRSA 33591, solution 14 days old, listed as Dimer, in µg/mL): 8 and 16
- MIC50 [1, 10]: 2 µg/mL
- MIC90 [1, 10]: 8 µg/mL
- Range of MICs ([1]; Table E, 10 strains, fresh solution, in µg/mL): 0.5-8
- MICs ([1]; Table E, ATCC MRSA 33591 (×2), fresh solution, in µg/mL): 1.0
- MIC ([1]; Table F, MRSA 2): 8 µg/mL
- MIC ([1]; Table F, MRSA 4): 2 µg/mL
- MIC ([1]; Table F, MRSA 6): 0.5 µg/mL
- MIC50 ([1]; Table G, 10 strains): 2 µg/mL
- MIC90 ([1]; Table G, 10 strains): 8 µg/mL
- Range of MICs ([1]; Table G, 10 strains): 0.5 to 8 mg/L
- MIC50 (P. aeruginosa; 10 strains): > 64 µg/mL
- MIC90 (P. aeruginosa; 10 strains): > 64 µg/mL
- Range of MICs (P. aeruginosa; 10 strains): ≥ 64 mg/L
- MIC (P. aeruginosa; ATCC PA 27853 (×2)): > 64 µg/mL
- MBC (MRSA; MRSA 2): 16 µg/mL
- MBC (MRSA; MRSA 4, skipped wells): > 16 µg/mL
- MBC (MRSA; MRSA 6): 2 µg/mL
